In the kinase profiling compilation of Christmann-Franck et al. (2016):

What was measured:
Assay in all cases: radiometric filter-binding kinase assay, Kinaseprofiler
[1] = test system: MAPKAPK5 (human), Q8IW41 [R291E]; conditions: compound 1.0 µM; ATP 15 µM
MAP2K4 (mouse) = conditions: compound 1.0 µM; accession and sequence are those of the human protein
FGFR4 (human) = FGFR4 (human) (UniProt P22455); conditions: compound 1.0 µM; ATP 155 µM
STK3 (human) = STK3 (human) (UniProt Q13188); conditions: compound 1.0 µM; ATP 155 µM
EPHA2 (human) = EPHA2 (human) (UniProt P29317); conditions: compound 1.0 µM; ATP 155 µM
EPHA2 (human), sequence (P29317 whole entry, looked up): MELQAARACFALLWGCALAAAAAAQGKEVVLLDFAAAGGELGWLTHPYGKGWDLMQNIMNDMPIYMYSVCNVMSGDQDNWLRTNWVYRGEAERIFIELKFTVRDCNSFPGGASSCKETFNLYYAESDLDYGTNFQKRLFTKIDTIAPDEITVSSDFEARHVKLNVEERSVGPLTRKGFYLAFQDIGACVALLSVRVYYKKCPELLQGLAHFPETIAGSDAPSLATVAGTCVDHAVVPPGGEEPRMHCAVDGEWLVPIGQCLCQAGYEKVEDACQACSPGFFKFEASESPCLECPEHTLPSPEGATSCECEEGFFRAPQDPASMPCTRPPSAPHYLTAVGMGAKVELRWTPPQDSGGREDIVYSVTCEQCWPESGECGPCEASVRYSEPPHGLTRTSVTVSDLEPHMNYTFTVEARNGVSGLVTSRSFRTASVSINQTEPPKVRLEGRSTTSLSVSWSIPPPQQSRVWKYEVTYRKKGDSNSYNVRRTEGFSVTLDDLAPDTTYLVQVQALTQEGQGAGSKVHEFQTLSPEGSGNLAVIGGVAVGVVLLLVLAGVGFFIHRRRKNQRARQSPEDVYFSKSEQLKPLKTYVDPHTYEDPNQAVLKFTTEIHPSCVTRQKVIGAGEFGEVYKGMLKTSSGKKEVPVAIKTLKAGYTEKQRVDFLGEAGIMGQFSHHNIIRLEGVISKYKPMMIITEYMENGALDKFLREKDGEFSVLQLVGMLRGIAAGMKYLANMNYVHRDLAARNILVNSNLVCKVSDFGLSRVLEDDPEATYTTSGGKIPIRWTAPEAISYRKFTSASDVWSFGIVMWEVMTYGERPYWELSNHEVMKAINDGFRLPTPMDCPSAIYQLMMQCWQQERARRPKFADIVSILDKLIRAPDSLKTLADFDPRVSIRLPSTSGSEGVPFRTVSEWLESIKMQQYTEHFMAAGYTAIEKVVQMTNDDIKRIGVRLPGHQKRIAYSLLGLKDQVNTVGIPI

[2] = test system: PRKCH (human), P24723 [V108L/G109R/L392Q]; conditions: compound 1.0 µM; ATP 45 µM
PTK6 (human) = PTK6 (human) (UniProt Q13882); conditions: compound 1.0 µM; ATP 15 µM
PTK6 (human), sequence (Q13882 whole entry, looked up): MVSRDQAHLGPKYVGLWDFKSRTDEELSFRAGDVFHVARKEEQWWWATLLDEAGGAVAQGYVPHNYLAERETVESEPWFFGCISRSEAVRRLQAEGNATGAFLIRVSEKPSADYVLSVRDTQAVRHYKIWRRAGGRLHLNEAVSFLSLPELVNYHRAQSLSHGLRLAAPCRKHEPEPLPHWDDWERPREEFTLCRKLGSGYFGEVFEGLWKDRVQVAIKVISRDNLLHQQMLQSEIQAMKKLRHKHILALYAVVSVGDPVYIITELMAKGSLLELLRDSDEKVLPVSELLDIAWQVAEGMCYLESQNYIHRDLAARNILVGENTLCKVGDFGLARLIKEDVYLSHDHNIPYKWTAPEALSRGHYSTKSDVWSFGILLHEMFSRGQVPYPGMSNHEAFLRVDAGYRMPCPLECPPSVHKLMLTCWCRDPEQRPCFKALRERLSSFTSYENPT

PAK4 (human) = PAK4 (human) (UniProt O96013); conditions: compound 1.0 µM; ATP 10 µM
[3] = test system: AKT3 (human), Q9Y243 [S472D]; conditions: compound 1.0 µM; ATP 45 µM
ZAP70 (human) = ZAP70 (human) (UniProt P43403); conditions: compound 1.0 µM; ATP 15 µM
[4] = test system: EGFR (human), P00533 [L858R]; conditions: compound 1.0 µM; ATP 10 µM
[5] = target: JAK2 JH1 catalytic (human) (UniProt O60674); conditions: compound 1.0 µM; ATP 45 µM
MAPK10 (human) = MAPK10 (human) (UniProt P53779); conditions: compound 1.0 µM; ATP 10 µM
MAPK10 (human), sequence (P53779 whole entry, looked up): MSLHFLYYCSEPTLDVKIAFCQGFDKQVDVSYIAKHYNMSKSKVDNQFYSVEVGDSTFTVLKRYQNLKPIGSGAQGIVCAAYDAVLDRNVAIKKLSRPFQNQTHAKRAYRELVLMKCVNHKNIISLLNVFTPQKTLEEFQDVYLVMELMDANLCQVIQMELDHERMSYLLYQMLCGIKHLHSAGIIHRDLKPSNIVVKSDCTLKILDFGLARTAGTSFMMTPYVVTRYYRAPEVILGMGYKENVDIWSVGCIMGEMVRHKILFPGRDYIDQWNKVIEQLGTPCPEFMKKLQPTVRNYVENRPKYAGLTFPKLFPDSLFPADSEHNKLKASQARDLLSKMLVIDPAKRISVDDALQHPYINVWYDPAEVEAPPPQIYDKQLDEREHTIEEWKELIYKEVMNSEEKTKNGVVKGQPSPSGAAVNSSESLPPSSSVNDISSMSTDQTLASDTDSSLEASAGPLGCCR

PRKCA (human) = PRKCA (human) (UniProt P17252); conditions: compound 1.0 µM; ATP 45 µM
NEK3 (human) = NEK3 (human) (UniProt P51956); conditions: compound 1.0 µM; ATP 120 µM
MAPK14 (human) = MAPK14 (human) (UniProt Q16539); conditions: compound 1.0 µM; ATP 90 µM
PAK3 (human) = PAK3 (human) (UniProt O75914); conditions: compound 1.0 µM; ATP 120 µM
NEK7 (human) = NEK7 (human) (UniProt Q8TDX7); conditions: compound 1.0 µM; ATP 45 µM
LIMK1 (human) = LIMK1 (human) (UniProt P53667); conditions: compound 1.0 µM; ATP 15 µM
LIMK1 (human), sequence (P53667 whole entry, looked up): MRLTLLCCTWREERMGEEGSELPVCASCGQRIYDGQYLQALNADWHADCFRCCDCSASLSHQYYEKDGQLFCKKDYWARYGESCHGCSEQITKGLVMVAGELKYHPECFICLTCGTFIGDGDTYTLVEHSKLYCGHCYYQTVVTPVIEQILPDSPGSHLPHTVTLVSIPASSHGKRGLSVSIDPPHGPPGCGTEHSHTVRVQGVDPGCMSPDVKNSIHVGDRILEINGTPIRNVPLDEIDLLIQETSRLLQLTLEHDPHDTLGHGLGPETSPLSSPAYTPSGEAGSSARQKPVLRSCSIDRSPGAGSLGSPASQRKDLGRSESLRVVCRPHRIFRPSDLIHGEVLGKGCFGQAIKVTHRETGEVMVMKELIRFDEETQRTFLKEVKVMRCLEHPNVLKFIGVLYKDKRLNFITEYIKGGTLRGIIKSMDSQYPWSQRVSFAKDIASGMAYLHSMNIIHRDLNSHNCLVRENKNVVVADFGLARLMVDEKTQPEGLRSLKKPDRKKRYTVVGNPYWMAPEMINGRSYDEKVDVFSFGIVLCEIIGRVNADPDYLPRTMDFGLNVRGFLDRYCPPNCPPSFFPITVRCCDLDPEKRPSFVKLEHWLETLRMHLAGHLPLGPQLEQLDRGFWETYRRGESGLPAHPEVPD

PRKCI (human) = PRKCI (human) (UniProt P41743); conditions: compound 1.0 µM; ATP 155 µM
PRKCI (human), sequence (P41743 whole entry, looked up): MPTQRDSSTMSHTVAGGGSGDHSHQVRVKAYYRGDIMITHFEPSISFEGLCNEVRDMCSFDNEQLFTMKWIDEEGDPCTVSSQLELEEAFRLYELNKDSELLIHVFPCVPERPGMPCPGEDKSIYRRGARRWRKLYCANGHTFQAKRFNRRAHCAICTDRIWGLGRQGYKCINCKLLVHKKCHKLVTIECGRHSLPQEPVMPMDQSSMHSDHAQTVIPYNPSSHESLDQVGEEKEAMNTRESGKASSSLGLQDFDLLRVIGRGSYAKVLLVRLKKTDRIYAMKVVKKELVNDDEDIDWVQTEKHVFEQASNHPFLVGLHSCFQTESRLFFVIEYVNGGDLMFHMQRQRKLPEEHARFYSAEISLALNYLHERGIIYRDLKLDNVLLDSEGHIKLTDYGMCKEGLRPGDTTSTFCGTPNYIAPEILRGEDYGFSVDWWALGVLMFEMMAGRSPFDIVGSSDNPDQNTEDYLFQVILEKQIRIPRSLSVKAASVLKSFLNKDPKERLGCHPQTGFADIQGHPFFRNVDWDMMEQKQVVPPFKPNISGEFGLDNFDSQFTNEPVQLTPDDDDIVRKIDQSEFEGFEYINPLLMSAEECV

WNK2 (human) = WNK2 (human) (UniProt Q9Y3S1); conditions: compound 1.0 µM; ATP 200 µM
ROCK1 (human) = ROCK1 (human) (UniProt Q13464); conditions: compound 1.0 µM; ATP 70 µM
INSRR (human) = INSRR (human) (UniProt P14616); conditions: compound 1.0 µM; ATP 200 µM
PTK2B (human) = PTK2B (human) (UniProt Q14289); conditions: compound 1.0 µM; ATP 90 µM
[6] = test system: AURKA (human), O14965 [I31F]; conditions: compound 1.0 µM; ATP 15 µM
AURKA (human), O14965 [I31F], sequence (O14965 whole entry, looked up, stated change not applied): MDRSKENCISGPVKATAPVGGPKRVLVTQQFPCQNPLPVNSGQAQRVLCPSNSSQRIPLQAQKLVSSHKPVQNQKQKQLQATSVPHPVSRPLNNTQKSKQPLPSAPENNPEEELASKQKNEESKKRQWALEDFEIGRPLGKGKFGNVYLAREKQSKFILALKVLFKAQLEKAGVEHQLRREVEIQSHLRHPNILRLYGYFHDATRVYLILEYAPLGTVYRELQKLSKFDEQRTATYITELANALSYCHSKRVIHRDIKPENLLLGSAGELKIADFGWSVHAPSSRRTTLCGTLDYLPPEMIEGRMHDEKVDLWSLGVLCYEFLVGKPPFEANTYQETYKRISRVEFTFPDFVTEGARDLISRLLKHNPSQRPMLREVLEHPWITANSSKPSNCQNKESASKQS

CSNK2A2 (human) = CSNK2A2 (human) (UniProt P19784); conditions: compound 1.0 µM; ATP 10 µM
[7] = test system: DDR2 (human), Q16832 [S642A]; conditions: compound 1.0 µM; ATP 200 µM
PLK2 (human) = PLK2 (human) (UniProt Q9NYY3); conditions: compound 1.0 µM; ATP 120 µM
STK33 (human) = STK33 (human) (UniProt Q9BYT3); conditions: compound 1.0 µM; ATP 155 µM
TBK1 (human) = TBK1 (human) (UniProt Q9UHD2); conditions: compound 1.0 µM; ATP 155 µM
ITK (human) = ITK (human) (UniProt Q08881); conditions: compound 1.0 µM; ATP 200 µM
NTRK2 (human) = NTRK2 (human) (UniProt Q16620); conditions: compound 1.0 µM; ATP 90 µM
[8] = test system: TEK (human), Q02763 [Q939H/Q940H]; conditions: compound 1.0 µM; ATP 200 µM
EPHA7 (human) = EPHA7 (human) (UniProt Q15375); conditions: compound 1.0 µM; ATP 90 µM
MAPK13 (human) = MAPK13 (human) (UniProt O15264); conditions: compound 1.0 µM; ATP 15 µM
MAPK13 (human), sequence (O15264 whole entry, looked up): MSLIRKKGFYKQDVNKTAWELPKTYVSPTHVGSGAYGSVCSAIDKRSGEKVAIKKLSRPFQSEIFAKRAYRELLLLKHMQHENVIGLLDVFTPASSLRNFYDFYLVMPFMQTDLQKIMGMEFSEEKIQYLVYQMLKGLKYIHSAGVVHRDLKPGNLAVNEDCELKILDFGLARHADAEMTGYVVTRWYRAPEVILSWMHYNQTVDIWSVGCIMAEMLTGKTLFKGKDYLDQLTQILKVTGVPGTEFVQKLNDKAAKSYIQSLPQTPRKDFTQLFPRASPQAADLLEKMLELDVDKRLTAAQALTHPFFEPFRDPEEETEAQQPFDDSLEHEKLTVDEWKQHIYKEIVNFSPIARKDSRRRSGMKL

FGFR1 (human) = FGFR1 (human) (UniProt P11362); conditions: compound 1.0 µM; ATP 200 µM
RET (human) = RET (human) (UniProt P07949); conditions: compound 1.0 µM; ATP 70 µM
RET (human), sequence (P07949 whole entry, looked up): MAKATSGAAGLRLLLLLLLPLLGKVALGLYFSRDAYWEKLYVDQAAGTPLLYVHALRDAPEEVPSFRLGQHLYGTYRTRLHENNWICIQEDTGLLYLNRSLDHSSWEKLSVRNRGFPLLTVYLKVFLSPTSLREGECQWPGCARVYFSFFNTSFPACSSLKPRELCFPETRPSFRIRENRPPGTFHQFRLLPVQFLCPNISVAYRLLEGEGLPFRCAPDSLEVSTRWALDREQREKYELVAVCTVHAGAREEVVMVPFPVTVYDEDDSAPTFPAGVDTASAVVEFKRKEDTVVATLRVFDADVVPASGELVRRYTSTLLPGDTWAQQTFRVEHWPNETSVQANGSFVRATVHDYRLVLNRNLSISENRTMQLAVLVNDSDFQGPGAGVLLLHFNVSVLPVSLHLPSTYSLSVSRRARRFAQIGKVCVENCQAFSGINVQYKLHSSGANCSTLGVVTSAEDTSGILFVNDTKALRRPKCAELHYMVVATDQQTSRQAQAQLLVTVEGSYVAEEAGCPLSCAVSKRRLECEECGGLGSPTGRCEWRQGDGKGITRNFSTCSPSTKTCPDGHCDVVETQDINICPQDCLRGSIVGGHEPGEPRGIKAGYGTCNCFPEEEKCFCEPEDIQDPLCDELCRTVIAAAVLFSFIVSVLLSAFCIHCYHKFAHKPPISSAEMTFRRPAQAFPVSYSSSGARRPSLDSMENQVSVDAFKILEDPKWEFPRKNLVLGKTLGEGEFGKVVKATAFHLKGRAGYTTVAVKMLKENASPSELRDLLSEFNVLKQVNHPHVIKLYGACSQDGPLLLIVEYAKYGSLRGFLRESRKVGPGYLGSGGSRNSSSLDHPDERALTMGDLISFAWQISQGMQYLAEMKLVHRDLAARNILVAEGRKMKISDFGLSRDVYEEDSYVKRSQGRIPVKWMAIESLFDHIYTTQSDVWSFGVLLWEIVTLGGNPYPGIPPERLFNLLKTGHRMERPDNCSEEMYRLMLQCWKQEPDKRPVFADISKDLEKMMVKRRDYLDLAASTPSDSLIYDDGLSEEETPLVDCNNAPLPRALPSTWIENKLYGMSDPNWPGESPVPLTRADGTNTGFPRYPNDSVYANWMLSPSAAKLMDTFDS

CHEK2 (human) = CHEK2 (human) (UniProt O96017); conditions: compound 1.0 µM; ATP 70 µM

Compound: CN(C)S(=O)(=O)Nc1ccc2ccc3ncc(-c4cnn(C)c4)cc3c(=O)c2c1
- residual activity [1]: 97%
- residual activity (MAP2K4 (mouse)): 87%
- residual activity (FGFR4 (human)): 88%
- residual activity (STK3 (human)): 90%
- residual activity (EPHA2 (human)): 80%
- residual activity [2]: 126%
- residual activity (PTK6 (human)): 103%
- residual activity (PAK4 (human)): 94%
- residual activity [3]: 96%
- residual activity (ZAP70 (human)): 127%
- residual activity [4]: 41%
- residual activity [5]: 43%
- residual activity (MAPK10 (human)): 53%
- residual activity (PRKCA (human)): 105%
- residual activity (NEK3 (human)): 104%
- residual activity (MAPK14 (human)): 124%
- residual activity (PAK3 (human)): 99%
- residual activity (NEK7 (human)): 112%
- residual activity (LIMK1 (human)): 72%
- residual activity (PRKCI (human)): 108%
- residual activity (WNK2 (human)): 126%
- residual activity (ROCK1 (human)): 107%
- residual activity (INSRR (human)): 103%
- residual activity (PTK2B (human)): 101%
- residual activity [6]: 7%
- residual activity (CSNK2A2 (human)): 123%
- residual activity [7]: 108%
- residual activity (PLK2 (human)): 58%
- residual activity (STK33 (human)): 90%
- residual activity (TBK1 (human)): 93%
- residual activity (ITK (human)): 18%
- residual activity (NTRK2 (human)): 15%
- residual activity [8]: 66%
- residual activity (EPHA7 (human)): 101%
- residual activity (MAPK13 (human)): 98%
- residual activity (FGFR1 (human)): 5%
- residual activity (RET (human)): 2%
- residual activity (CHEK2 (human)): 93%
